The target of experiment [1] is Fibroblast growth factor receptor 2 (Homo sapiens) (UniProt P21802). Conditions: Compound concentration 20.0 uM.
Description: Thermal Shift Assay. Domain: start/stop: T457-E768
The next experiment deals with T1, Peregrin (Homo sapiens) (UniProt P55201).
T1 sequence (whole entry): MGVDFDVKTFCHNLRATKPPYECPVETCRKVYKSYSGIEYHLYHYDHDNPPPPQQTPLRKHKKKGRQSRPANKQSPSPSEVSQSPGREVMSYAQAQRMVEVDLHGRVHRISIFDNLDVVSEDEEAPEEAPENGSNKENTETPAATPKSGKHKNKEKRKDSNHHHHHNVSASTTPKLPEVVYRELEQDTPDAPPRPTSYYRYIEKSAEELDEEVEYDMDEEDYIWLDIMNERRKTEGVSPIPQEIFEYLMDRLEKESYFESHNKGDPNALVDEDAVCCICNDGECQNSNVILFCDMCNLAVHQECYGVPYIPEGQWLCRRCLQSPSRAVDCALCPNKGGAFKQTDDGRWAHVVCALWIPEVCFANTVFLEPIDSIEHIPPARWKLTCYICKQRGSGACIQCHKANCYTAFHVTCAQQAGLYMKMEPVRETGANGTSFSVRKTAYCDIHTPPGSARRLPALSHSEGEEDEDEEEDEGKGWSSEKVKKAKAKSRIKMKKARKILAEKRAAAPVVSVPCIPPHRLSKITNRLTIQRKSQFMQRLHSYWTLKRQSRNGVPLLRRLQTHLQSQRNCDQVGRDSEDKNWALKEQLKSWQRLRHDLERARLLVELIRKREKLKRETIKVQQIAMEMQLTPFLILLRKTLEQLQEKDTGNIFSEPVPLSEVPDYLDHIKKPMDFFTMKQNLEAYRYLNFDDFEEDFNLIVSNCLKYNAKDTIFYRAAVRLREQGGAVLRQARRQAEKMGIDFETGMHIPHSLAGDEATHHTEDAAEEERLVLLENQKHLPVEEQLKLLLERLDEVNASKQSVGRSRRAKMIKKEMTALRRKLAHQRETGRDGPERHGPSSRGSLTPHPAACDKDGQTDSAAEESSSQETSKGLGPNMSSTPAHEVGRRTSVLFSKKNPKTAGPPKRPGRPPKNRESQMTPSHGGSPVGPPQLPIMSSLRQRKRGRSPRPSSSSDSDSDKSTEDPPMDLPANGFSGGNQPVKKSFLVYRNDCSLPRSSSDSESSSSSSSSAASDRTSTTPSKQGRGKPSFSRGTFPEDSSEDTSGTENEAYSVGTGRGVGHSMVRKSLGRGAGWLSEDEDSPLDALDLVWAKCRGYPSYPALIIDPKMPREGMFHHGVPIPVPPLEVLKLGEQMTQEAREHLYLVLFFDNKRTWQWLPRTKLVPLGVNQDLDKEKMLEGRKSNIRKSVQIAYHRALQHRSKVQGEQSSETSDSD
Conditions: Compound concentration 20.0 uM.

The structures appear in SMILES notation. Where “and” joins values, the source holds several entries; their conditions need not be identical. Identical values can stand only once. Non-standard residues stand in square brackets, D forms with d. Residues, ends and D or L forms follow the SMILES beside them. *: point of attachment. Benzoyl(4-tBu) = CC(C)(C)c1ccc(C(=O)*)cc1; Lys(Et2) = CCN(CC)CCCC[C@H](N)C(=O)O; Nle = CCCC[C@H](N)C(=O)O

Sequence of Fibroblast growth factor receptor 2 (Homo sapiens) (P21802 22-821 limits assumed): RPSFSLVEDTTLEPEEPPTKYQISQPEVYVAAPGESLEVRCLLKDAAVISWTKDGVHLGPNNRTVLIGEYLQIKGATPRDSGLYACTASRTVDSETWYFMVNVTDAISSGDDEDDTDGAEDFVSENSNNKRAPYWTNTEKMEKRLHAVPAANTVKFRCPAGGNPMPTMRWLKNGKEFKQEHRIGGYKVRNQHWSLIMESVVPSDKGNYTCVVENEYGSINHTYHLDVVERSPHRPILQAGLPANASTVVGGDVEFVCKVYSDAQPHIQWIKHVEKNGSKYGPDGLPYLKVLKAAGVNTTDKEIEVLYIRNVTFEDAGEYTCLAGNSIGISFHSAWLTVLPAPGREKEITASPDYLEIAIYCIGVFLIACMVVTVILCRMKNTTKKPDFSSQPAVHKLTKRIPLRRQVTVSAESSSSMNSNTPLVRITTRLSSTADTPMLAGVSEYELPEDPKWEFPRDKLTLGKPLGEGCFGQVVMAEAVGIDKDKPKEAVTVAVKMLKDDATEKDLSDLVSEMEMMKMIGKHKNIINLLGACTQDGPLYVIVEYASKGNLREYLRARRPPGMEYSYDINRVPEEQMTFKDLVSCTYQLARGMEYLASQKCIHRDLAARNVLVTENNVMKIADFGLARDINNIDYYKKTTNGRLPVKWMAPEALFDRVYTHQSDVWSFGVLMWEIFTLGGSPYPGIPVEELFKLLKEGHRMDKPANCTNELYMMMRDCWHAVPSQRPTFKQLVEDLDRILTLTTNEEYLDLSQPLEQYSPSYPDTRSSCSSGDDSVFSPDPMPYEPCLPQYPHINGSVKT

Consider `COc1cc2c(NC3CCN(CC4CCCCC4)CC3)nc(N3CCCN(C(C)C)CC3)nc2cc1OCCCN1CCCCC1`, for which the ΔTm (in general, the shift of the melting midpoint relative to a reference) in experiment [1] was 0.65 °C; on Peregrin (Homo sapiens), -0.98 °C.
In the same order, the values of `COCc1nc(C(F)(F)F)[nH]c1-c1cc(C(=O)N2CC(c3ccc(C#N)cc3)C2)c(C)cc1C` are 0.03 °C and 1.19 °C.
For `CCCC[C@@H](C=O)NC(=O)[C@H](CC(C)C)NC(=O)[C@H](CC(C)C)NC(C)=O` (Ac-Leu-Leu-[Nle]-aldehyde), the ΔTm in experiment [1] was 0.84 °C; at Peregrin (Homo sapiens), -1.4 °C.
The matching figures for `O=C(NCCc1cc(C(=O)NO)no1)c1ccc(Cl)c(Cl)c1`: 0.8 °C and -1.25 °C.
Regarding `CCN(CC)CCCC[C@H](NC(=O)[C@H](CC(C)C)NC(=O)[C@H](C)NC(=O)[C@H](Cc1ccccc1)NC(=O)c1ccc(C(C)(C)C)cc1)C(=O)N[C@@H](CO)C(=O)OC` ({Benzoyl(4-tBu)}-FAL[Lys(Et2)]S-OMe), the thermal shift (ΔTm) in experiment [1] is 0.43 °C; on Peregrin (Homo sapiens), -1.51 °C.
In the same order, the values of `Nc1ccc(-c2cccs2)cc1NC(=O)c1ccc2nc(N3CCNCC3)ccc2c1` are 0.98 °C and 0.96 °C.
The matching figures for `CC(C)NC(=O)c1ccc(OC(F)F)c(OCC2CC2)c1`: 0.29 °C and 0.69 °C.
The matching figures for `CS(=O)(=O)c1ccc(Oc2cc(F)cc(C#N)c2)c2c1C(O)C(F)C2` (stereo not given): -0.57 °C and 0.86 °C.
Consider `Cc1ccc(N2C(=O)/C(=C/C=C/c3ccco3)C(=O)NC2=S)cc1Cl`, for which the values for the ΔTm (in experiment [1]; at Peregrin (Homo sapiens)) were -1.72 °C and -2.31 °C, respectively.
As for `CS(=O)(=O)Nc1ccc(-c2coc3cc(OCc4cccc(C(=O)O)c4)ccc3c2=O)cc1`, the ΔTm in experiment [1] was -0.06 °C; on Peregrin (Homo sapiens), 1.08 °C.
With `CN1Cc2c(Cl)cc(Cl)cc2[C@H](c2cccc(S(=O)(=O)NCCOCCOCCNC(=O)NCCCCNC(=O)NCCOCCOCCNS(=O)(=O)c3cccc([C@@H]4CN(C)Cc5c(Cl)cc(Cl)cc54)c3)c2)C1`, the ΔTm was -0.42 °C in experiment [1] and 0.43 °C at Peregrin (Homo sapiens).
With `CC(C)c1cnc(CSc2cnc(NC(=O)C3CCNCC3)s2)o1`, the shift in melting temperature (ΔTm) is 0.73 °C in experiment [1] and -1.67 °C at Peregrin (Homo sapiens).
`Nc1ncnc2nc(-c3ccc(N4CCOCC4)nc3)cc(-c3cccc(Br)c3)c12`: the shift in melting temperature (ΔTm) in experiment [1] was 0.52 °C; on Peregrin (Homo sapiens), -0.37 °C.
Turning to `Fc1ccc(CNc2ncnc3ccc(F)cc23)cc1`, the thermal shift (ΔTm) in experiment [1] was -0.12 °C; on Peregrin (Homo sapiens), 1.26 °C.
For the compound `COc1ccc(-n2c(SCCCN3C(=O)c4cccc5cccc(c45)C3=O)nnc2-c2ccncc2)cc1`, the ΔTm is 0.21 °C in experiment [1] and 0.39 °C on Peregrin (Homo sapiens).
In the case of `Cc1noc2c1-c1ccccc1C(c1ccc(Cl)cc1)=N[C@H]2CC(N)=O`, the figures for the ΔTm (in experiment [1]; on Peregrin (Homo sapiens)) were -0.03 °C and 2.09 °C, respectively.
In the same order, the values of `CN1CC[C@@H](Oc2ccc(F)c(-c3nc4c(o3)C(=O)c3ccccc3C4=O)c2Cl)C1` are -0.38 °C and 0.26 °C.
Turning to `N=C(N)SCc1ccc(CN2C(=O)C(=O)c3cc(C(F)(F)F)ccc32)cc1`, the results for the ΔTm (in experiment [1]; on Peregrin (Homo sapiens)) were 0.77 °C and 0.27 °C, respectively.
Consider `Cc1nccn1CC1CCc2c(c3ccccc3n2C)C1=O` (stereo not given), for which the thermal shift (ΔTm) is -0.16 °C in experiment [1] and 0.91 °C on Peregrin (Homo sapiens).
Turning to `CC(=O)Nc1ccc(OC[C@](C)(O)C(=O)Nc2ccc([N+](=O)[O-])c(C(F)(F)F)c2)cc1`, the ΔTm in experiment [1] came to 2.59 °C; on Peregrin (Homo sapiens), 0.97 °C.
With `CNC(=O)N1CCc2c(c(N3CCCc4cc(-c5cnn(C)c5)c(C(F)F)cc43)nn2C2CCOCC2)C1`, the shift in melting temperature (ΔTm) in experiment [1] is -0.44 °C; at Peregrin (Homo sapiens), -0.21 °C.
Regarding `Nc1nc2cc(CC[C@H]3C[C@@H](n4ccc5c(N)ncnc54)[C@H](O)[C@@H]3O)ccc2cc1Br`, the ΔTm was -5.18 °C in experiment [1] and -0.14 °C at Peregrin (Homo sapiens).
In the same order, the values of `CCCCCCCC(=O)N[C@H](CN1CCCC1)[C@H](O)c1ccc2c(c1)OCCO2` are 0.38 °C and 1.02 °C.
The matching figures for `Cc1ncsc1-c1ccc(CNC(=O)[C@@H]2C[C@@H](O)CN2C(=O)[C@@H](NC(=O)COCCOCCOCCNC(=O)C[C@@H]2N=C(c3ccc(Cl)cc3)c3c(sc(C)c3C)-n3c(C)nnc32)C(C)(C)C)cc1`: 0.61 °C and -1.64 °C.
The matching figures for `O=C(NCCCCCCCCNC(=O)C(Cl)Cl)C(Cl)Cl`: -0.34 °C and 0.99 °C.
Turning to `C[C@@H](Oc1ccc(S(C)(=O)=O)cc1C(=O)N1C[C@@H]2C[C@]2(c2cc(C(F)(F)F)on2)C1)C(F)(F)F`, the ΔTm in experiment [1] is -0.81 °C; at Peregrin (Homo sapiens) it was 0.16 °C.
As to `CS(=O)(=O)N1CCN(C(=O)c2cnc3ccc(F)cc3c2N2CCC(C#N)(c3ccccc3)CC2)CC1`, the values for the shift in melting temperature (ΔTm) (in experiment [1]; at Peregrin (Homo sapiens)) were -4.51 °C and 1.45 °C, respectively.
The matching figures for `O=C(c1ccc2[nH]ccc2c1)N1CCN(S(=O)(=O)c2ccc3[nH]c(=O)oc3c2)CC1`: 1.77 °C and -0.16 °C.
In the same order, the values of `C[C@H](NC(=O)c1cn(C2(C#N)CC2)cn1)C(=O)Nc1nc(-c2cccc(-c3ccn(C)n3)c2)cs1` are 0.8 °C and -0.85 °C.
Regarding `O=C(O)C1=CCCN(CCON=C(c2ccccc2)c2ccccc2)C1`, the results for the ΔTm (in experiment [1]; on Peregrin (Homo sapiens)) were 0.48 °C and 0.57 °C, respectively.
The matching figures for `NCCCOc1cc2ccccc2cc1C(=O)NCCOc1cc2ccccc2cc1C(=O)Nc1ccc(Cl)cc1O`: -1.59 °C and 0 °C.
As to `CC(C)[C@@H]1C(=O)N(S(C)(=O)=O)[C@@H]2CCN(C(=O)/C=C/CN3CCCCC3)[C@H]21`, the results for the shift in melting temperature (ΔTm) (in experiment [1]; on Peregrin (Homo sapiens)) were 0.49 °C and -1.67 °C, respectively.
`CC(C)c1cc(C(=O)N2CC[C@@H](NC(=O)C3CC3)C2)[nH]n1`: the thermal shift (ΔTm) in experiment [1] is -0.51 °C; at Peregrin (Homo sapiens), -0.47 °C.
In the same order, the values of `O=C(NNc1ccccn1)c1ccccn1` are 0.02 °C and 0.74 °C.
In the same order, the values of `O=C(NCC(=O)N1CCCCC1)Nc1ccc2nnsc2c1` are 0.59 °C and -1.05 °C.
The matching figures for `Cc1c(Nc2ccc(S(=O)(=O)N3CCN(C)CC3)cc2F)nc2ccc(-c3cnn(C4CC4)c3)cn2c1=O`: -0.17 °C and 0.83 °C.
For `Nc1c[nH]c(=O)c2cc(-c3ccccc3)sc12`, the ΔTm in experiment [1] was 0.44 °C; at Peregrin (Homo sapiens), -1.11 °C.
Consider `CCn1ncc2c(NC3CCOCC3)c(-c3nnc(Cc4sc(C)nc4C)o3)cnc21`, for which the ΔTm is 0.47 °C in experiment [1] and 0.65 °C at Peregrin (Homo sapiens).
The matching figures for `CS(=O)(=O)c1ncn2c(NCc3c(F)ccc4c3CCO4)ncc(-c3ccc(C4CC4)nc3)c12`: -0.76 °C and -0.81 °C.
On to `CC(=O)N1CCC(Nc2cc(C(=O)NC[C@H](O)CN3CCc4ccccc4C3)ncn2)CC1`, for which the values for the shift in melting temperature (ΔTm) (in experiment [1]; at Peregrin (Homo sapiens)) were 0.28 °C and -1.13 °C, respectively.
In the same order, the values of `CCN(CC)C(=O)/C(C#N)=C/c1cc(O)c(O)c([N+](=O)[O-])c1` are 0.06 °C and 1.31 °C.
Regarding `CC1(NC(=O)COc2cccc(-c3nc4c(c(Nc5ccc(-c6cn[nH]c6)cc5)n3)CN(C3CCC3)CC4)c2)CC1`, the values for the ΔTm (in experiment [1]; on Peregrin (Homo sapiens)) were -0.36 °C and 1.53 °C, respectively.
In the same order, the values of `O=C(NCc1ncccc1F)c1coc(CCNCCc2nc3ccccc3[nH]2)n1` are -0.6 °C and -1.77 °C.
Consider `CCO/N=C1\c2ccccc2-c2nc(C#N)c(C#N)nc21`, for which the thermal shift (ΔTm) in experiment [1] was 0.21 °C and 0.32 °C; at Peregrin (Homo sapiens), 2.55 °C and 0.36 °C.
In the case of `CNC(=O)c1cc(C(=O)NC2CC2)cn(Cc2ccccc2)c1=O`, the ΔTm in experiment [1] was -1.38 °C; on Peregrin (Homo sapiens), 0.73 °C.
In the case of `O=C(N1CCCCC1c1ccccc1)n1cc(-c2ccc(-c3cccc(CO)c3)cc2)nn1` (stereo not given), the thermal shift (ΔTm) in experiment [1] is -4.93 °C; on Peregrin (Homo sapiens) it was -1.91 °C.
The matching figures for `COc1nc(N)nc(Nc2cc(S(N)(=O)=O)ccc2N[C@@H](c2cccc3c2OC(F)(F)O3)c2ncccc2Cl)n1`: 1.9 °C and -3.63 °C.
`COc1cccc(OC)c1S(=O)(=O)Nc1noc2cc(Cn3cccn3)cc(OC)c12`: the ΔTm in experiment [1] was -3.46 °C; on Peregrin (Homo sapiens) it was -0.57 °C.
Take `Cc1cc(C)nc(SCC(=O)Nc2ncc(Cc3cccc(OCc4cn(Cc5ccccc5)nn4)c3)s2)n1`: the results for the ΔTm (in experiment [1]; at Peregrin (Homo sapiens)) were -10.7 °C and -1.46 °C, respectively.
In the case of `Cc1ccc(C(=O)Nc2ccc(S(=O)(=O)O)c3cc(S(=O)(=O)O)cc(S(=O)(=O)O)c23)cc1NC(=O)c1cccc(NC(=O)Nc2cccc(C(=O)Nc3cc(C(=O)Nc4ccc(S(=O)(=O)O)c5cc(S(=O)(=O)O)cc(S(=O)(=O)O)c45)ccc3C)c2)c1`, the thermal shift (ΔTm) in experiment [1] was -1.68 °C; at Peregrin (Homo sapiens), -1.58 °C.

The values are drawn from ChEMBL document CHEMBL5724796, “Tm Shift (DSF) assay results for EUbOPEN Chemogenomics Library” (2024).
